As a reminder, the MIC is the smallest concentration in the dilution series that meets the test's criterion for growth inhibition.

Experimental findings from ChEMBL document CHEMBL3046848, “Synthesis and biological evaluation of novel series of thieno[2,3-d]pyrimidine derivatives as anticancer and antimicrobial agents” (2013) are described below.

Structures are written as SMILES. Converted amounts (≈) assume the structure as drawn.

Common to all, as to type: functional
For one test, the system named is IGROV-1. In words: Growth inhibition of Homo sapiens (human) IGROV1 cells at 10 uM after 48 hr by SRB assay. Conditions: IGROV-1, 48 h, read-out: GI.
The test system of test [1] is Pseudomonas aeruginosa. In words: Antimicrobial activity against Pseudomonas aeruginosa ATCC9027 assessed as diameter of growth inhibition zone at 1 mg/ml after 24 hr by agar cup diffusion method. Conditions: ATCC9027, 24 h, read-out: IZ.
The next test relates to Escherichia coli. In words: Antimicrobial activity against Escherichia coli ATCC8739 assessed as diameter of growth inhibition zone at 1 mg/ml after 24 hr by agar cup diffusion method. Conditions: ATCC8739, 24 h, read-out: IZ.
For the next test, the system named is Staphylococcus aureus. The experiment in a line: Antimicrobial activity against Staphylococcus aureus ATCC6538P assessed as diameter of growth inhibition zone at 1 mg/ml after 24 hr by agar cup diffusion method. Conditions: read-out: IZ.
The next test has as its system Candida albicans. The experiment in a line: Antimicrobial activity against Candida albicans ATCC2091 assessed as diameter of growth inhibition zone at 1 mg/ml after 48 hr by agar cup diffusion method. Conditions: ATCC2091, 48 h, read-out: IZ.
Another test concerns SK-MEL-2. The experiment in a line: Growth inhibition of Homo sapiens (human) SK-MEL-2 cells at 10 uM after 48 hr by SRB assay. Conditions: SK-MEL-2, 48 h, read-out: GI.
Another test deals with TK-10. The experiment in a line: Growth inhibition of Homo sapiens (human) TK10 cells at 10 uM after 48 hr by SRB assay. Conditions: TK-10, 48 h, read-out: GI. In general terms: In SRB staining, fixed cells bind dye roughly in proportion to their protein.
For test [2], the system named is Pseudomonas aeruginosa. In words: Antimicrobial activity against Pseudomonas aeruginosa ATCC9027 assessed as growth inhibition after 48 hr by two-fold serial dilution method. Conditions: ATCC9027, 48 h.
A further test relates to SF-295. In words: Growth inhibition of Homo sapiens (human) SF295 cells at 10 uM after 48 hr by SRB assay. Conditions: SF-295, 48 h, read-out: GI.

Turning to `Cc1c(C(N)=O)sc2nc(SCC(=O)Nc3ccc(Cl)cc3)n(-c3ccccc3)c(=O)c12`, the results for the inhibition of growth at 10 µM in the test on IGROV-1, with SK-MEL-2 and in the test on TK-10 were 79.4%, 116% and 47.2%, respectively. Further, the zone of inhibition at 1000 µg/mL in the test on Pseudomonas aeruginosa [1] came out at 12 mm; in the test on Escherichia coli, 15 mm; with Staphylococcus aureus, 10 mm; in the test on Candida albicans, 15 mm.
Take `Cc1c(C(N)=O)sc2ncn(CCO)c(=O)c12`: the zone of inhibition at 1000 µg/mL with Pseudomonas aeruginosa [1] turned out to be 17 mm; in the test with Escherichia coli it was 15 mm; with Staphylococcus aureus, 10 mm; in the test on Candida albicans, 15 mm. In addition, in the test on Pseudomonas aeruginosa [2], the MIC came to 125 µg/mL (≈ 494 µM). Moreover, the inhibition of growth at 10 µM in the test on SF-295 turned out to be 43.8%; with TK-10, 97.1%.
